Reference: article PMC11882969 (Nature Communications, 2025)

Target: CB1 (rCB1) (Rattus norvegicus, UniProt P20272)
Assay: Single-point radioligand displacement screen
Format: binding
Details: 10 µM, 1 µM or 300 nM by cell colour (not visible)

CB1 (rCB1), sequence (P20272 whole entry): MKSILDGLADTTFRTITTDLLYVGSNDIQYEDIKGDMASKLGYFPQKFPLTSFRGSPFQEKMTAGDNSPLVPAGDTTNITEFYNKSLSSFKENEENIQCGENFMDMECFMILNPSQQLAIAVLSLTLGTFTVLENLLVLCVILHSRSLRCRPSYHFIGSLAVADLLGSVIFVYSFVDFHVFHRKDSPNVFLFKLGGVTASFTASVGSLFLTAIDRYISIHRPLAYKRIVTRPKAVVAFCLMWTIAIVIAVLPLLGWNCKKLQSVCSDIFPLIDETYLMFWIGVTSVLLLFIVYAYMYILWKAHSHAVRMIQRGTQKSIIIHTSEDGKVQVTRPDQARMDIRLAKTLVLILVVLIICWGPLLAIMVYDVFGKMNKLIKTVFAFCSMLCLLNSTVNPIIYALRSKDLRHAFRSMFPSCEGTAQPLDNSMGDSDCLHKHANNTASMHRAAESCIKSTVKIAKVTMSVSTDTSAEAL

SMILES | % 1H-CP-55,940 displacement (mean) from single point screen [%]
Cc1cc(C(=O)N2CC3(CCC3)C2c2ccco2)nn1-c1cccc(C(F)(F)F)c1 (centres unmarked) [10_10] | 94.41
Cc1cc(C(=O)N2CC3(CCC3)[C@@H]3COC[C@@H]32)nn1-c1cccc(C(F)(F)F)c1 [10_14] | 91.30
COC(=O)[C@@H]1[C@@H]2CCC[C@@H]2CN1C(=O)c1nn(-c2cccc(C(F)(F)F)c2)c2c1CCC2 [10_17] | 98.24
Cc1cc(C(=O)N2CC3(CCC3)C2C2CCOCC2)nn1-c1cccc(C(F)(F)F)c1 (centres unmarked) [10_19] | 82.61
CC1(C)CN(C(=O)c2cn(-c3cccc(C(F)(F)F)c3)nn2)C1c1cccs1 (centres unmarked) [10_20] | 52.38
CCOC(=O)C1CN(C(=O)c2cc(C)n(-c3cccc(C(F)(F)F)c3)n2)CC12CC2 (centres unmarked) [10_21] | 83.57
O=C(c1cn(-c2cccc(C(F)(F)F)c2)nn1)N1CC2(CCC2)C1C1CCCO1 (centres unmarked) [10_23] | 25.67
C[C@@H](COC(=O)c1nn(C)c(=O)c2ccccc12)Oc1ccc(Cl)cc1 [0450_14] | 28.77
Cn1nc(-c2nnc(C(C)(C)Oc3cccc(Cl)c3)o2)c2ccccc2c1=O [0450_22] | 43.54
Cn1nc(-c2nnc(C(C)(C)Oc3ccc(C#N)cc3)o2)c2ccccc2c1=O [0450_23] | -19.18
Cn1nc(-c2nnc(CCOc3ccc(Cl)cc3)o2)c2ccccc2c1=O [0450_24] | 12.07
Cn1nc(Cc2nnc(C(C)(C)Oc3ccc(Cl)cc3)o2)c2ccccc2c1=O [0450_25] | -12.39
Cn1nc(CNC(=O)C(C)(C)Oc2ccc(Cl)cc2)c2ccccc2c1=O [0450_26] | 7.64
COC(=O)[C@H](C)NC(=O)c1cc(C)n(-c2cccc(F)c2)n1 [1486_11] | -7.46
COC(=O)C(NC(=O)c1cc(-c2cccc(F)c2)c2ccccc2c1)c1cccs1 (centres unmarked) [1486_17] | 8.92
O=C(Nc1cccc2ccsc12)c1ccn(-c2cccc(F)c2)n1 [1486_22] | -3.59
Cc1nc(CC2CC2)oc1-c1nc(Cc2ccc3c(c2)OCCCO3)no1 [7019_1] | 6.40
